Source: ChEMBL document CHEMBL1154622, “Structure-guided design of potent and selective pyrimidylpyrrole inhibitors of extracellular signal-regulated kinase (ERK) using conformational control” (J Med Chem, 2009)

Assays:
[1] = biological target: Cyclin-dependent kinase 2 (Homo sapiens, UniProt P24941)
HT-29 = test: Antiproliferative activity against human HT-29 cells; assay type: functional, cell-based
[2] = biological target: Mitogen-activated protein kinase 1 (Homo sapiens, UniProt P28482)
Description: Inhibition of ERK2 after 10 mins by spectrophotometric coupled-enzyme assay

[3] = Inhibition of GSK3
Aurora kinase A = biological target: T1, Aurora kinase A (Homo sapiens, UniProt O14965); test: Inhibition of AURA
T1 sequence (O14965 whole entry): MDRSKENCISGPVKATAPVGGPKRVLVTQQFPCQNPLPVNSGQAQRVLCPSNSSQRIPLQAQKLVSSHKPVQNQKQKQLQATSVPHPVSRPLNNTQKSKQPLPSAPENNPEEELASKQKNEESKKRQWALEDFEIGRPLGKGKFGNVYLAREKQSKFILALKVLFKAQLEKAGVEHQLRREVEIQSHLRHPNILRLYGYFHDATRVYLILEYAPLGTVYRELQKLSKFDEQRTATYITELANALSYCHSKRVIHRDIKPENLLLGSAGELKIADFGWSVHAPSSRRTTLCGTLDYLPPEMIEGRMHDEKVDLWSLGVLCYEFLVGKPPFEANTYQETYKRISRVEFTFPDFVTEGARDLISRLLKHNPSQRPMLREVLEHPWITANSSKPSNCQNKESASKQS

Mitogen-activated protein kinase 1, sequence (P28482 whole entry): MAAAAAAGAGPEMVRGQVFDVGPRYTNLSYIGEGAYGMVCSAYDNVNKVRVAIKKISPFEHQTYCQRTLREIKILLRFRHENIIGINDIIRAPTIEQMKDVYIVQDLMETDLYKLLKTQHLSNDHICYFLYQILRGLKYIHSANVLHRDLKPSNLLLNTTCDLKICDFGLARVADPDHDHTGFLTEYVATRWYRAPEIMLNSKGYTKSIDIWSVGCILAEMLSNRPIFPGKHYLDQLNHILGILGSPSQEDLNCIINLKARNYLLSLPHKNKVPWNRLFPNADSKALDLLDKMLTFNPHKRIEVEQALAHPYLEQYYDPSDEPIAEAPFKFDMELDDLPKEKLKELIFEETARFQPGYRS

Q: Which Ki [1] does the source give for `Cc1cnc(Nc2ccccc2F)nc1-c1c[nH]c(C(=O)N[C@H](CO)c2ccccc2)c1` here?
A: 57 nM

Q: What about the IC50 (HT-29) of the same compound?
A: 26 nM

Q: And the Ki [2]?
A: < 2 nM

Q: And the Ki [3]?
A: 45 nM

Q: And the Ki (Aurora kinase A)?
A: 160 nM

Q: Which results are given for `Cc1cnc(Nc2ccccc2O)nc1-c1c[nH]c(C(=O)N[C@H](CO)c2ccccc2)c1`?
A: Ki [1]: < 100 nM; IC50 (HT-29): 3000 nM; Ki [2]: 4 nM; Ki [3]: < 2 nM; Ki (Aurora kinase A): 99 nM

Q: Which results are given for `Cc1cnc(Nc2cccc3c2OC(F)(F)O3)nc1-c1c[nH]c(C(=O)N[C@H](CO)c2cccc(Cl)c2)c1`?
A: Ki [1]: 170 nM; IC50 (HT-29): 280 nM; Ki [2]: < 2 nM; Ki [3]: 310 nM; Ki (Aurora kinase A): > 800 nM

Q: Which Ki [1] does the source give for `Cc1cnc(Nc2cccc(C)c2C)nc1-c1c[nH]c(C(=O)N[C@H](CO)c2cccc(Cl)c2)c1` here?
A: 41 nM

Q: What about the Ki [2] of the same compound?
A: < 2 nM

Q: And the Ki [3]?
A: 110 nM

Q: What about the Ki (Aurora kinase A) of the same compound?
A: 440 nM

Q: What does the source list for `Cc1cnc(Nc2ccccc2)nc1-c1c[nH]c(C(=O)N[C@H](CO)c2cccc(Cl)c2)c1`?
A: Ki [1]: 290 nM; IC50 (HT-29): 100 nM; Ki [2]: < 2 nM; Ki [3]: 140 nM; Ki (Aurora kinase A): 19 nM

Q: For `CCc1ccccc1Nc1ncc(C)c(-c2c[nH]c(C(=O)N[C@H](CO)c3ccccc3)c2)n1`, which Ki [1] is on record?
A: 210 nM

Q: What about the IC50 (HT-29) of the same compound?
A: 66 nM

Q: What about the Ki [2] of the same compound?
A: 3 nM

Q: What about the Ki [3] of the same compound?
A: 760 nM

Q: What about the Ki (Aurora kinase A) of the same compound?
A: 1430 nM

Q: Which Ki [1] does the source give for `Cc1cccc([C@@H](CO)NC(=O)c2cc(-c3nc(Nc4ccccc4)ncc3C)c[nH]2)c1` here?
A: 69 nM

Q: What about the IC50 (HT-29) of the same compound?
A: 40 nM

Q: And the Ki [2]?
A: < 2 nM

Q: What about the Ki [3] of the same compound?
A: 26 nM

Q: What about the Ki (Aurora kinase A) of the same compound?
A: 45 nM

Q: With `Cc1cnc(Nc2ccccc2)nc1-c1c[nH]c(C(=O)N[C@@H](CO)c2ccccc2)c1` as the compound, how does the Ki [2] read?
A: 670 nM

Q: What about the Ki (Aurora kinase A) of the same compound?
A: 270 nM

Q: What does the source list for `Cc1cnc(Nc2cccc3c2CCCC3)nc1-c1c[nH]c(C(=O)N[C@H](CO)c2cccc(Cl)c2)c1`?
A: Ki [1]: 250 nM; IC50 (HT-29): 420 nM; Ki [2]: 13 nM; Ki [3]: 667 nM; Ki (Aurora kinase A): 280 nM

Q: Which results are given for `Cc1cnc(Nc2cccc3c2OCO3)nc1-c1c[nH]c(C(=O)N[C@H](CO)c2cccc(Cl)c2)c1`?
A: Ki [1]: 209 nM; IC50 (HT-29): 58 nM; Ki [2]: < 2 nM; Ki [3]: 33 nM; Ki (Aurora kinase A): 15 nM

Q: Which IC50 (HT-29) does the source give for `Cc1cnc(Nc2ccccc2)nc1-c1c[nH]c(C(=O)N[C@H](CO)c2ccccc2)c1` here?
A: 29 nM

Q: What about the Ki [2] of the same compound?
A: < 2 nM

Q: What about the Ki (Aurora kinase A) of the same compound?
A: 15 nM

Q: For `CCc1ccccc1Nc1ncc(C)c(-c2c[nH]c(C(=O)N[C@H](CO)c3cccc(Cl)c3)c2)n1`, which Ki [1] is on record?
A: 450 nM

Q: And the IC50 (HT-29)?
A: 39 nM

Q: What about the Ki [2] of the same compound?
A: < 2 nM

Q: What about the Ki [3] of the same compound?
A: 150 nM

Q: And the Ki (Aurora kinase A)?
A: 720 nM

Q: Which results are given for `Cc1cc(Cl)ccc1Nc1ncc(C)c(-c2c[nH]c(C(=O)N[C@H](CO)c3cccc(Cl)c3)c2)n1`?
A: Ki [1]: 76 nM; IC50 (HT-29): 98 nM; Ki [2]: 5 nM; Ki [3]: 1100 nM; Ki (Aurora kinase A): 410 nM

Q: With `Cc1ccccc1Nc1ncc(C)c(-c2c[nH]c(C(=O)N[C@H](CO)c3ccccc3)c2)n1` as the compound, how does the Ki (Aurora kinase A) read?
A: 860 nM

Q: What does the source list for `Cc1cnc(Nc2cccc3c2CCC3)nc1-c1c[nH]c(C(=O)N[C@H](CO)c2cccc(Cl)c2)c1`?
A: Ki [1]: 642 nM; IC50 (HT-29): 250 nM; Ki [2]: < 2 nM; Ki [3]: 350 nM; Ki (Aurora kinase A): 550 nM

Q: Which Ki [1] does the source give for `Cc1cnc(Nc2ccccc2Cl)nc1-c1c[nH]c(C(=O)N[C@H](CO)c2ccccc2)c1` here?
A: 240 nM

Q: And the Ki [2]?
A: < 2 nM

Q: And the Ki [3]?
A: 190 nM

Q: And the Ki (Aurora kinase A)?
A: 1550 nM

Q: Which results are given for `Cc1ccccc1Nc1ncc(C)c(-c2c[nH]c(C(=O)N[C@H](CO)c3cccc(Cl)c3)c2)n1`?
A: Ki [3]: < 2 nM; Ki (Aurora kinase A): 400 nM

Q: Which Ki [1] does the source give for `Cc1cnc(Nc2cccc(F)c2C)nc1-c1c[nH]c(C(=O)N[C@H](CO)c2cccc(Cl)c2)c1` here?
A: 150 nM

Q: What about the IC50 (HT-29) of the same compound?
A: 56 nM

Q: What about the Ki [2] of the same compound?
A: 34 nM

Q: What about the Ki [3] of the same compound?
A: 1260 nM

Q: And the Ki (Aurora kinase A)?
A: 410 nM

Q: With `Cc1cnc(Nc2ccccc2C(F)(F)F)nc1-c1c[nH]c(C(=O)N[C@H](CO)c2ccccc2)c1` as the compound, how does the Ki [1] read?
A: > 4000 nM

Q: What about the IC50 (HT-29) of the same compound?
A: 6300 nM

Q: What about the Ki (Aurora kinase A) of the same compound?
A: > 800 nM

Q: For `COc1cccc(Nc2ncc(C)c(-c3c[nH]c(C(=O)N[C@H](CO)c4cccc(Cl)c4)c3)n2)c1OC`, which Ki [1] is on record?
A: > 2500 nM

Q: And the IC50 (HT-29)?
A: 230 nM

Q: What about the Ki [2] of the same compound?
A: 3 nM

Q: And the Ki [3]?
A: > 2500 nM

Q: And the Ki (Aurora kinase A)?
A: > 200 nM

Q: With `Cc1cnc(Nc2cccc3c2OCCO3)nc1-c1c[nH]c(C(=O)N[C@H](CO)c2cccc(Cl)c2)c1` as the compound, how does the Ki [1] read?
A: 138 nM

Q: What about the IC50 (HT-29) of the same compound?
A: 58 nM

Q: What about the Ki [2] of the same compound?
A: 15 nM

Q: What about the Ki [3] of the same compound?
A: 45 nM

Q: What about the Ki (Aurora kinase A) of the same compound?
A: 11 nM

Q: What does the source list for `Cc1cnc(Nc2ccc(Cl)cc2F)nc1-c1c[nH]c(C(=O)N[C@H](CO)c2cccc(Cl)c2)c1`?
A: Ki [1]: 316 nM; IC50 (HT-29): 97 nM; Ki [2]: 5 nM; Ki [3]: 450 nM; Ki (Aurora kinase A): 540 nM
